Experiments:
[1] = system: IGROV1; experiment: NCI screening panel, IGROV1 (Ovarian Cancer); type: cell-based, human
Description: (§1) Representative compounds of Formula I were screened using the National Cancer Institute (NCI) screening panel, which consists of a panel of human tumor cell lines, representing leukemia, melanoma, and cancers of the lung, colon, ovary, breast, prostate and renal system.
(§2) After 24 h, two plates of each cell line are fixed in situ with TCA, to represent a measurement of the cell population for each cell line at the time of drug addition (Tz). Experimental drugs are solubilised in dimethyl sulfoxide at 400-fold the desired final maximum test concentration and stored frozen prior to use. At the time of drug addition, an aliquot of frozen concentrate is thawed and diluted to twice the desired final maximum test concentration with complete medium containing 50 μg/mL gentamicin. Additional four, 10-fold or ½ log serial dilutions are made to provide a total of five drug concentrations plus control. Aliquots of 100 μl of these different drug dilutions are added to the appropriate microtiter wells already containing 100 μl of medium, resulting in the required final drug concentrations.
(§3) Following drug addition, the plates are incubated for an additional 48 h at 37° C., 5% CO2, 95% air, and 100% relative humidity. For adherent cells, the assay is terminated by the addition of cold TCA (trichloroacetic acid). Cells are fixed in situ by the gentle addition of 50 μl of cold 50% (w/v) TCA (final concentration, 10% TCA) and incubated for 60 minutes at 4° C. The supernatant is discarded, and the plates are washed five times with tap water and air dried. Sulforhodamine B (SRB) solution (100 μl) at 0.4% (w/v) in 1% acetic acid is added to each well, and plates are incubated for 10 minutes at room temperature. After staining, unbound dye is removed by washing five times with 1% acetic acid and the plates are air dried. Bound stain is subsequently solubilised with 10 mM trizma base, and the absorbance is read on an automated plate reader at a wavelength of 515 nm. For suspension cells, the methodology is the same except that the assay is terminated by fixing settled cells at the bottom of the wells by gently adding 50 μl of 80% TCA (final concentration, 16% TCA). Using the seven absorbance measurements [time zero, (Tz), control growth, (C), and test growth in the presence of drug at the five concentration levels (Ti)], the percentage growth is calculated at each of the drug concentrations levels. Percentage growth inhibition is calculated as: [(Ti−Tz)/(C−Tz)]×100 for concentrations for which Ti>/=Tz and [(Ti−Tz)/Tz]×100 for concentrations for which Ti<Tz.
(§4) Three dose response parameters are calculated for each experimental agent. Growth inhibition of 50% (GI50) is calculated from [(Ti−Tz)/(C−Tz)]×100=50, which is the drug concentration resulting in a 50% reduction in the net protein increase (as measured by SRB staining) in control cells during the drug incubation. The drug concentration resulting in total growth inhibition (TGI) is calculated from Ti=Tz. The LC50 (concentration of drug resulting in a 50% reduction in the measured protein at the end of the drug treatment as compared to that at the beginning) indicating a net loss of cells following treatment is calculated from [(Ti−Tz)/Tz]×100=−50. Values are calculated for each of these three parameters if the level of activity is reached. However, if the effect is not reached or is exceeded, the value for that parameter is expressed as greater or less than the maximum or minimum concentration tested.

[2] = system: MDA-MB-468; experiment: NCI screening panel, MDA-MB-468 (Breast Cancer); type: cell-based, human
Description: as §1, §2, §3, §4

[3] = system: HOP-62; experiment: NCI screening panel, HOP-62 (Non-Small Cell Lung Cancer); type: cell-based, human
Description: as §1, §2, §3, §4

[4] = system: SF-268; experiment: NCI screening panel, SF-268 (CNS Cancer); type: cell-based, human
Description: as §1, §2, §3, §4

[5] = system: DU-145; experiment: NCI screening panel, DU-145 (Prostate Cancer); type: cell-based, human
Description: as §1, §2, §3, §4

[6] = system: SK-MEL-5; experiment: NCI screening panel, SK-MEL-5 (Melanoma); type: cell-based, human
Description: as §1, §2, §3, §4

[7] = system: KMS-11; experiment: Cell viability (MTS) assay, KMS-11; type: cell-based; conditions: Homo sapiens; KMS-11, MTS, 72 hours, mean ± standard deviation
Description: Human multiple myeloma cell lines 8226, H929, JJN3, KMH11, KMS11, KMS18, LP1, MM1S, OPM2 and U266 were grown in Iscove modified Dulbecco's medium (IMDM). Human leukemia cell lines K562, OCI-AML2 and U937 were cultured in RPMI-1640 medium. Primary peripheral blood mononuclear cells were isolated from multiple myeloma patients by Ficoll density gradient centrifugation and bone marrow aspirates were obtained from multiple myeloma patients at the Princess Margaret Cancer Centre of the University Health Network (UHN; Toronto, ON, Canada). Primary cells were cultured in IMDM. The collection and use of human tissue for this study was approved by the UHN institutional ethics review board. All cell culture media were obtained from the Ontario Cancer Institute Tissue Culture Media Facility (Toronto, ON, Canada) and were supplemented with 10% fetal calf serum, […] (Hyclone, Logan, Utah). All cells were grown in a humidified incubator at 37° C. with 5% CO2.
Cellular viability was primarily assessed by 3-(4,5-dimethylthiazol-2-yl)-5-(3-carboxymethoxyphenyl)-2-(4-sulfophenyl)-2H-tetrazolium (MTS) assay according to the manufacturer's instructions (Promega; Madison, Wis.). Cells were first seeded at a density of 10,000 cells per well in tissue culture-treated 96-well plates. Two hours after seeding, cells were treated with compounds for 72 hours at concentrations as indicated. As a control, cells were treated with DMSO alone in every assay plate. Following treatment and the MTS assay, cell viability was independently confirmed by reading the optical density (O.D.) at 490 nm and by exclusion of trypan blue stain (Invitrogen; Burlington, ON, Canada). The viability of primary mononuclear cells was determined by staining with Annexin V.
Table 8 summarizes the data of representative compounds of Formula I for cell viability and CT-L proteasome activity with OCI-AML-2 and KMS-11 cell lines.

[8] = system: UACC-257; experiment: NCI screening panel, UACC-257 (Melanoma); type: cell-based, human
Description: as §1, §2, §3, §4

[9] = system: NCI-H460; experiment: NCI screening panel, NCI-H460 (Non-Small Cell Lung Cancer); type: cell-based, human
Description: as §1, §2, §3, §4

Row | Structure (SMILES) | Log10GI50 [1] | Log10LC50 [1] | Log10TGI50 [1] | Log10GI50 [2] | Log10LC50 [2] | Log10TGI50 [2] | Log10GI50 [3] | Log10LC50 [3] | Log10TGI50 [3] | Log10GI50 [4] | Log10LC50 [4] | Log10TGI50 [4] | Log10GI50 [5] | Log10LC50 [5] | Log10TGI50 [5] | Log10GI50 [6] | Log10LC50 [6] | Log10TGI50 [6] | IC50 [7] | Log10GI50 [8] | other results
1 | CC(C)C[C@H](NC(=O)[C@H](COC(F)F)NC(=O)CN1CCOCC1)C(=O)N[C@@H](COC(F)F)C(=O)N[C@@H](CC(C)C)C(=O)[C@@]1(C)CO1 [Example 1, (2S)—N-[(1S)-1-(difluoromethoxymethyl)-2-[[(1S)-3-methyl-1-[(2R)-2-methyloxirane-2-carbonyl]butyl]amino]-2-oxo-ethyl]-2-[[(2S)-3-(difluoromethoxy)-2-[(2-morpholinoacetyl)amino]propanoyl]amino]-4-methyl-pentanamide] | −7.43 | >−4.00 | −6.40 | −7.55 | >−4.00 | −6.89 | −7.76 | −6.57 | −7.33 | −7.65 | >−4.00 | −7.17 | −7.25 | >−4.00 | −4.66 | −7.55 | −6.30 | −6.97 | 0.0266 ± 0.00847 µM | −7.01 | Log10LC50 [8]: >−4.00; Log10TGI50 [8]: −5.62; Log10GI50 [9]: −7.30; Log10LC50 [9]: >−4.00; Log10TGI50 [9]: −6.39
2 | CC(C)C[C@H](NC(=O)[C@H](COC(F)F)NC(=O)CN1CCOCC1)C(=O)N[C@@H](Cc1ccccc1)C(=O)N[C@@H](CC(C)C)C(=O)[C@@]1(C)CO1 [Example 2, (2S)-N-[(1S)-1-benzyl-2-[[(1S)-3-methyl-1-[(2R)-2-methyloxirane-2-carbonyl]butyl]-amino]-2-oxo-ethyl]-2-[[(2S)-3-(difluoromethoxy)-2-[(2-morpholinoacetyl)amino]propanoyl]amino]-4-methyl-pentanamide] | −7.59 | >−4.00 | −6.66 | −7.75 | −4.63 | −7.13 | −7.90 | −7.04 | −7.47 | −7.81 | >−4.00 | −7.20 | −7.34 | >−4.00 | −5.00 | −7.53 | −6.23 | −6.94 | 0.0219 ± 0.000342 µM | −7.23 | Log10LC50 [8]: −4.58; Log10TGI50 [8]: −6.43; Log10GI50 [9]: −7.37; Log10LC50 [9]: >−4.00; Log10TGI50 [9]: −6.57
3 | CC(C)C[C@H](NC(=O)[C@H](COC(F)F)NC(=O)CN1CCOCC1)C(=O)N[C@@H](Cc1ccccc1)C(=O)N[C@@H](Cc1ccccc1)C(=O)[C@@]1(C)CO1 [Example 3, (2S)-N-[(1S)-1-benzyl-2-[[(1S)-1-benzyl-2-[(2R)-2-methyloxiran-2-yl]-2-oxo-ethyl]amino]-2-oxo-ethyl]-2-[[(2S)-3-(difluoromethoxy)-2-[(2-morpholinoacetyl)-amino]propanoyl]amino]-4-methyl-pentan-amide] | −7.93 | >−4.00 | −7.02 | <−8.00 | −6.09 | −7.34 | <−8.00 | −4.76 | −7.20 | <−8.00 | −4.98 | −7.40 | <−8.00 | −4.48 | −5.79 | −7.71 | −6.43 | −7.19 | 0.0176 ± 0.000629 µM | −7.23 | Log10LC50 [8]: −4.53; Log10TGI50 [8]: −6.40; Log10GI50 [9]: −7.43; Log10LC50 [9]: −5.64; Log10TGI50 [9]: −6.77
